From patent US20090053807A1 (Novo Nordisk A/S, priority 1998, published 2009)
“Also recorded” adds a separate entry of the source. Positions of bridges follow the written chain, without caps; N, C: chain ends. Non-standard residues stand in square brackets, D forms with d. Residues, ends and D or L forms follow the SMILES beside them. Chains are numbered I, II in the order given. No end group written: not given here. *: point of attachment. aminooxyacetyl = NOCC(=O)*; Glyoxylyl = O=CC(=O)*

Test system: free fat cells
Test: Adipocyte / free fat cell (FFC) assay, 3H glucose incorporation into lipid
Details: for FEC: FFC assay potency
[1] = number of + grades agonist potency

S326 (GIISQSCPESFYDWFAGQVSDPWWCW) [Peptide S326]
FEC [1]: −

CC(C)C[C@@H]1NC(=O)[C@H](CO)NC(=O)[C@H](C)NC(=O)CNC(=O)[C@H](Cc2c[nH]c3ccccc23)NC(=O)[C@H](Cc2ccccc2)NC(=O)[C@H](CC(C)C)NC(=O)[C@H](CCC(=O)O)NC(=O)[C@H](CCC(=O)O)NC(=O)[C@H](CC(C)C)NC(=O)[C@H](C(C)C)NC(=O)[C@@H](NC(=O)[C@H](CC(C)C)NC(=O)[C@H](Cc2c[nH]cn2)NC(=O)[C@@H](N)CCCCN)CSSC[C@@H](C(=O)N[C@@H](CO)C(=O)NCC(=O)N[C@@H](CCCCN)C(=O)N[C@@H](CCCCN)C(N)=O)NC(=O)[C@H](Cc2ccc(O)cc2)NC(=O)CNC(=O)[C@H](Cc2ccccc2)NC1=O [Peptide S331] (HELM PEPTIDE1{K.H.L.C.V.L.E.E.L.F.W.G.A.S.L.F.G.Y.C.S.G.K.K.[am]}$PEPTIDE1,PEPTIDE1,4:R3-19:R3$$$V2.0)
FEC [1]: 0

CC[C@@H](C)[C@@H](NC(=O)[C@H](CCC(=O)O)NC(=O)[C@H](CC(=O)O)NC(=O)[C@H](Cc1ccccc1)NC(=O)[C@H](Cc1c[nH]c2ccccc12)NC(=O)[C@H](CC(=O)O)NC(=O)[C@H](Cc1ccc(O)cc1)NC(=O)[C@H](Cc1ccccc1)NC(=O)[C@H](CCC(=O)O)NC(=O)C(C)(C)NC(=O)[C@H](CC(=O)O)NC(=O)C1(NC(=O)[C@@H](N)CC(=O)O)Cc2ccccc2C1)C(=O)N1CCC[C@H]1C(=O)N[C@H](CCC(N)=O)C(N)=O [Peptide S319] (HELM PEPTIDE1{D.[O=C(C1(N[*:1])Cc2ccccc2C1)[*:2]].D.[Aib].E.F.Y.D.W.F.D.E.[dI].P.[dQ].[am]}$$$$V2.0)
FEC [1]: 0

CC(C)C[C@H](NC(=O)[C@H](CCC(N)=O)NC(=O)[C@H](CCCNC(=N)N)NC(=O)[C@H](CCC(=O)O)NC(=O)[C@H](Cc1ccccc1)NC(=O)[C@H](Cc1c[nH]c2ccccc12)NC(=O)[C@H](CC(=O)O)NC(=O)[C@H](Cc1ccc(O)cc1)NC(=O)[C@H](Cc1ccccc1)NC(=O)[C@H](CO)NC(=O)[C@H](CCC(=O)O)NC(=O)[C@H](CC(=O)O)NC(=O)[C@H](CC(C)C)NC(=O)[C@H](CO)NC(=O)CNC(=O)CNC(=O)[C@H](CO)NC(=O)[C@@H]1CSSC[C@H](NC(=O)[C@H](CC(C)C)NC(=O)[C@@H](N)Cc2c[nH]cn2)C(=O)N[C@@H](C(C)C)C(=O)N[C@@H](CC(C)C)C(=O)N[C@@H](CCC(=O)O)C(=O)N[C@@H](CCC(=O)O)C(=O)N[C@@H](CC(C)C)C(=O)N[C@@H](Cc2ccccc2)C(=O)N[C@@H](Cc2c[nH]c3ccccc23)C(=O)NCC(=O)N[C@@H](C)C(=O)N[C@@H](CO)C(=O)N[C@@H](CC(C)C)C(=O)N[C@@H](Cc2ccccc2)C(=O)NCC(=O)N[C@@H](Cc2ccc(O)cc2)C(=O)N1)C(=O)O [Peptide S521] (HELM PEPTIDE1{H.L.C.V.L.E.E.L.F.W.G.A.S.L.F.G.Y.C.S.G.G.S.L.D.E.S.F.Y.D.W.F.E.R.Q.L}$PEPTIDE1,PEPTIDE1,3:R3-18:R3$$$V2.0; N-terminus and C-terminus assumed; bridges inferred)
FEC (number of + grades agonist activity): +

(ESFYDWFERQLGK)2-23 [Peptide S415]
activity in the FFC assay / at IR: highly potent

S419 (chain 1 K(aminooxyacetyl)EWLDQEWAWVQCEVYGRGCPSEE; chain 2 K(aminooxyacetyl)EWLDQEWAWVQCEVYGRGCPSEE; disulfide I:13-I:20, II:13-II:20 (inferred); not fully specified (bridges); also: dimer, the two chains joined N-terminus to N-terminus through linker 14 at the side chain of residue 1) [Peptide S419]
FEC [1]: 0

S453: Site 1-Site 2 heterodimer, C-N linkage (GSLDESFYDWFERQLGKKK[Glyoxylyl][Glyoxylyl]KEWLDQEWAWVQCEVYGRGCPSEE; disulfide 34-41 (inferred); not fully specified (residue 20, bridges); printed as GSLDESFYDWFERQLGKKK-Ald-17-Ald-KEWLDQ EWAWVQCEVYGRGCPSEE; also: Site 1-Site 2 heterodimer, C-N linkage via linker 17) [Peptide S453]
activity in the FFC assay / at IR: antagonist activity; also recorded: antagonist properties
